Source: US12552792B2, “Solid forms of an FGFR inhibitor and processes for preparing the same” (Incyte Corporation, priority 2018, dated 2026)

Assay: Competitive slurry experiments with mixed Compound 1 polymorphs (XRPD)
Format: physicochemical
Conditions: for Solid State Form after competitive slurry: saturated Form I solution + 5 mg each of Form I through Form XXVI, stirred overnight, XRPD; for Competitive slurry result (form by XRPD): DCM/MeOH (9:1, 0.6 mL), 5 mg each of Form I through Form XXVI
Description: To evaluate the transformation of solid forms of Compound 1, competitive slurry experiments were performed as follows. To the saturated solution of Form I in the solvent as listed in Table 11 was added Form I (5 mg), then 5 mg each of Form II through Form XXVI.
The slurry was stirred overnight, filtered and analyzed by XRPD.
A competitive slurry experiment was conducted in dichloromethane/methanol (9/1) according to the procedure in Table 12. The mixture of forms (Form I through Form XXVI) was converted to Form II after 15 min as shown by XRPD at various time points including 15 mins, 1 h, 18 h and 3 days, which indicated the Form II was consistently obtained.

Q: What does the source list for CCN1C(=O)N(c2c(F)c(OC)cc(OC)c2F)Cc2cnc3[nH]c(CN4CCOCC4)cc3c21 [Compound 1, 3-(2,6-difluoro-3,5-dimethoxyphenyl)-1-ethyl-8-(morpholin-4-ylmethyl)-1,3,4,7-tetrahydro-2H-pyrrolo[3′,2′:5,6]pyrido[4,3-d]pyrimidin-2-one]?
A: Solid State Form after competitive slurry (Acetonitrile (1.7 mL)): Form I; Competitive slurry result (form by XRPD) (stirred for 15 min): Form II; Competitive slurry result (form by XRPD) (stirred for 60 min): Form II; Competitive slurry result (form by XRPD) (stirred for 18 h): Form II; Competitive slurry result (form by XRPD) (stirred for 3 days): Form II; Solid State Form after competitive slurry (Ethanol (1.7 mL)): Form I; Solid State Form after competitive slurry (Iso-propanol (1.7 mL)): Form I
